Reference: ChEMBL document CHEMBL1152560, “Substituted 2-arylbenzothiazoles as kinase inhibitors: hit-to-lead optimization” (Bioorg Med Chem, 2009)

Legend:
[1] = target: Calcium/calmodulin-dependent protein kinase type II subunit beta (Homo sapiens) (UniProt Q13554); assay: Residual activity of CAMK2B at 1 uM by microplate scintillation counting
[2] = target: Casein kinase II subunit alpha (Homo sapiens) (UniProt P68400); assay: Residual activity of CK2alpha1 at 1 uM by microplate scintillation counting
Casein kinase II subunit alpha (Homo sapiens), sequence (P68400 whole entry, looked up): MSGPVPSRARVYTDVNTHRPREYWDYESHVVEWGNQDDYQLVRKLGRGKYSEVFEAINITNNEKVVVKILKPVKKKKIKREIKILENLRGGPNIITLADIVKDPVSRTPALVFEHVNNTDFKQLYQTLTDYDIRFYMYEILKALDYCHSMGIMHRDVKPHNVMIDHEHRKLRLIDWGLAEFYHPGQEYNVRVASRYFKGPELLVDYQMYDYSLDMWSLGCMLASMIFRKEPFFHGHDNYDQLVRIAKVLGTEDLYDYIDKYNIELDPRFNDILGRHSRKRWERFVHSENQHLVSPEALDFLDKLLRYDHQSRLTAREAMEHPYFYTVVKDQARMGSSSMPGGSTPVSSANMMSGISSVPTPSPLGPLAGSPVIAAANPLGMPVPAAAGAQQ

[3] = target: RAC-beta serine/threonine-protein kinase (Homo sapiens) (UniProt P31751); assay: Residual activity of AKT2 at 0.1 uM by microplate scintillation counting
RAC-beta serine/threonine-protein kinase (Homo sapiens), sequence (P31751 whole entry): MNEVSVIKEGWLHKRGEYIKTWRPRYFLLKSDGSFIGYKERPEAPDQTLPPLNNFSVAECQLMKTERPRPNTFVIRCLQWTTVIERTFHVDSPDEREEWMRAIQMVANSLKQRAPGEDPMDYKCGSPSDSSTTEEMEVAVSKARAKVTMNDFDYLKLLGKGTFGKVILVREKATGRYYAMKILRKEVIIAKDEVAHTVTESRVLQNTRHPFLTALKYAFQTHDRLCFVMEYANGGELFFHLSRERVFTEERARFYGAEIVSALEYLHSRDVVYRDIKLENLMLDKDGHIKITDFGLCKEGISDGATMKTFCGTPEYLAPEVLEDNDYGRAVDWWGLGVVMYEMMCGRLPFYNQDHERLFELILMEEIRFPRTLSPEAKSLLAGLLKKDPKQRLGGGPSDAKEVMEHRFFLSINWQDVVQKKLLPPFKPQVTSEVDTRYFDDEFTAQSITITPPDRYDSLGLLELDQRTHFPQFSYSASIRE

[4] = target: Dual specificity tyrosine-phosphorylation-regulated kinase 1A (Homo sapiens) (UniProt Q13627); assay: Residual activity of DYRK1A at 0.1 uM by microplate scintillation counting
[5] = target: Serine/threonine-protein kinase PAK 6 (Homo sapiens) (UniProt Q9NQU5); assay: Residual activity of PAK6 at 10 uM by microplate scintillation counting
Serine/threonine-protein kinase PAK 6 (Homo sapiens), sequence (Q9NQU5 whole entry, looked up): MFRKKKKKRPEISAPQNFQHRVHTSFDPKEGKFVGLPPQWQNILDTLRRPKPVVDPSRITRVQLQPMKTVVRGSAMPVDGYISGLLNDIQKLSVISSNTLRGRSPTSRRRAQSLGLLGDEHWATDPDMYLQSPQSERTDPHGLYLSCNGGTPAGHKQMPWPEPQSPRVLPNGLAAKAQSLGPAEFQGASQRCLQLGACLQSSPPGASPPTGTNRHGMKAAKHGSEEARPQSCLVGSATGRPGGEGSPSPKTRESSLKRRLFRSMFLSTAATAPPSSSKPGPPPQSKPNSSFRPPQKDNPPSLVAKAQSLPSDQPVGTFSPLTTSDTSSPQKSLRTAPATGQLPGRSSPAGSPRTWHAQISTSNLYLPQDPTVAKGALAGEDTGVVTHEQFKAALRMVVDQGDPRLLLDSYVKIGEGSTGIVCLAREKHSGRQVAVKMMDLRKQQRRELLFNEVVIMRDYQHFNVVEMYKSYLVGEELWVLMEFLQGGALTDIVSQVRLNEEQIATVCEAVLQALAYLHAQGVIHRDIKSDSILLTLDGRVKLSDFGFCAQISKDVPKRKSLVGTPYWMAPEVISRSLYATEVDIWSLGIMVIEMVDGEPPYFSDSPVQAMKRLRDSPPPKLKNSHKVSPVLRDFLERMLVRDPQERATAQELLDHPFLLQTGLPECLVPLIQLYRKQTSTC

[6] = target: Ribosomal protein S6 kinase alpha-5 (Homo sapiens) (UniProt O75582); assay: Residual activity of RPS6KA5 at 10 uM by microplate scintillation counting
[7] = target: Cyclin-dependent kinase 7/ cyclin H (Homo sapiens) (UniProt P51946+P50613); assay: Residual activity of CDK7/CyclinH/MAT1 at 10 uM by microplate scintillation counting; assay type: protein-complex assay
[8] = target: SRSF protein kinase 2 (Homo sapiens) (UniProt P78362); assay: Residual activity of SRPK2 at 1 uM by microplate scintillation counting
SRSF protein kinase 2 (Homo sapiens), sequence (P78362 whole entry, looked up): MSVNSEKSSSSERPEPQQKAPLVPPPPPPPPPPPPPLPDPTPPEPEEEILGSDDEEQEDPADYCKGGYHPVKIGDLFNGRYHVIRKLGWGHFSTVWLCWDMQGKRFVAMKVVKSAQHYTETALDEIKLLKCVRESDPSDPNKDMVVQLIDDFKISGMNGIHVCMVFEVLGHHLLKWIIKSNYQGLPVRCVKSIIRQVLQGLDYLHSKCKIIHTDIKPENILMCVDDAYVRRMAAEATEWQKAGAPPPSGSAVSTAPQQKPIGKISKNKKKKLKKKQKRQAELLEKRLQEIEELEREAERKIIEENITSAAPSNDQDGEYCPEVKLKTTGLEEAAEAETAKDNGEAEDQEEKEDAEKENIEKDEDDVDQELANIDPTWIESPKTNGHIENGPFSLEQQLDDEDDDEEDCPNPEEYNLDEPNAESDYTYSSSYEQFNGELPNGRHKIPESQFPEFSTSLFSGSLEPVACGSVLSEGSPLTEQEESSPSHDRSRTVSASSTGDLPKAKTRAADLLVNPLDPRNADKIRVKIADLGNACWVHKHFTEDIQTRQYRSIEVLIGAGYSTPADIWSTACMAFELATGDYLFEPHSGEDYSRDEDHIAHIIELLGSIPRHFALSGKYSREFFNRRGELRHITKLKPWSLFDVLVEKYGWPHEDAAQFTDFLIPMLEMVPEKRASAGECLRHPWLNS

[9] = target: Tyrosine-protein kinase SYK (Homo sapiens) (UniProt P43405); assay: Residual activity of SYK at 0.1 uM by microplate scintillation counting
[10] = target: Serine/threonine-protein kinase MRCK beta (Homo sapiens) (UniProt Q9Y5S2); assay: Residual activity of CDC42BPB at 0.1 uM by microplate scintillation counting
Serine/threonine-protein kinase MRCK beta (Homo sapiens), sequence (Q9Y5S2 whole entry): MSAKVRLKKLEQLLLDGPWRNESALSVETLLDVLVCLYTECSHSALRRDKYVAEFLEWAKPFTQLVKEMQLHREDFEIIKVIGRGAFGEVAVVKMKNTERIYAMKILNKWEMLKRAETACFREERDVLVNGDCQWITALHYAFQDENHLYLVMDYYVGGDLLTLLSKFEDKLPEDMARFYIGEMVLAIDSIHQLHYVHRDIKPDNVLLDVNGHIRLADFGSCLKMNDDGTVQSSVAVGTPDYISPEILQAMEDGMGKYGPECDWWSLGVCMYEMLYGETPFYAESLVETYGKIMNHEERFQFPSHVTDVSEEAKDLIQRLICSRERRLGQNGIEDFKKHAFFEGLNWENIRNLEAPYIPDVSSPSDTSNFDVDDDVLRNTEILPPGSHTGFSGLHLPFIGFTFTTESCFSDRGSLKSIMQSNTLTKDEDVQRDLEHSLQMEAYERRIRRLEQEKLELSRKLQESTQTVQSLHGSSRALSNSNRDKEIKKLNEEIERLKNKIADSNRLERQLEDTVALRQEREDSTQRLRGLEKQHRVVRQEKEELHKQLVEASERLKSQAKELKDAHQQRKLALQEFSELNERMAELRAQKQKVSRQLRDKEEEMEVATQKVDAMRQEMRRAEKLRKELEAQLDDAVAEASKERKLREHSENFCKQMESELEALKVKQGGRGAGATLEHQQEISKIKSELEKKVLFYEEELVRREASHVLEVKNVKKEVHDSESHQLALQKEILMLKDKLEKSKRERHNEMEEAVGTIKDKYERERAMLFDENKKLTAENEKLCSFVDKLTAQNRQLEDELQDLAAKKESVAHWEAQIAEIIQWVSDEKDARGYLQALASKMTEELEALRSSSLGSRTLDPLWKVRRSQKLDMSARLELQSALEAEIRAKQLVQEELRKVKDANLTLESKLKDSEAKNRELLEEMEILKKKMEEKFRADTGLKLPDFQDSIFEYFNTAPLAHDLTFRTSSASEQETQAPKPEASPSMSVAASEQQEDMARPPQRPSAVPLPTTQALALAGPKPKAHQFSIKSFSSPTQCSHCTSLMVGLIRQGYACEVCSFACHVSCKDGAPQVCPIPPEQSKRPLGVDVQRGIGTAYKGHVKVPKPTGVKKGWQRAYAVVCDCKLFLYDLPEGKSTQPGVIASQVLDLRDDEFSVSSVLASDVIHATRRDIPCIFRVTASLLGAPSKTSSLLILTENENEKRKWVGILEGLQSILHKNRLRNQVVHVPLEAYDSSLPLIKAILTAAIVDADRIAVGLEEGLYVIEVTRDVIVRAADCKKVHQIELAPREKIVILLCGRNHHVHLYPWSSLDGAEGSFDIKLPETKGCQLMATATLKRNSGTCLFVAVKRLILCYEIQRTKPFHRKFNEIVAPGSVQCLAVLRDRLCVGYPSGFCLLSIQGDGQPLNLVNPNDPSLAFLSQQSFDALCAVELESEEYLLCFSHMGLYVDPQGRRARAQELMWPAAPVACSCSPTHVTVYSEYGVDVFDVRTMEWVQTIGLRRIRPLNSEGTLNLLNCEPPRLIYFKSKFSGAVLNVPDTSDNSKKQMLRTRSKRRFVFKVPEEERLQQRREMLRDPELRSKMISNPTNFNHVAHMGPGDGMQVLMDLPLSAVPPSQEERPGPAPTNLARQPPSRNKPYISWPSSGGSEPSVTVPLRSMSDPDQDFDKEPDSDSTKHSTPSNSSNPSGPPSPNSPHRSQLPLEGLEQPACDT

[11] = target: T1, Testis-specific serine/threonine-protein kinase 1 (Homo sapiens) (UniProt Q9BXA7); assay: Residual activity of TSSK1 at 10 uM by microplate scintillation counting
T1 sequence (whole entry): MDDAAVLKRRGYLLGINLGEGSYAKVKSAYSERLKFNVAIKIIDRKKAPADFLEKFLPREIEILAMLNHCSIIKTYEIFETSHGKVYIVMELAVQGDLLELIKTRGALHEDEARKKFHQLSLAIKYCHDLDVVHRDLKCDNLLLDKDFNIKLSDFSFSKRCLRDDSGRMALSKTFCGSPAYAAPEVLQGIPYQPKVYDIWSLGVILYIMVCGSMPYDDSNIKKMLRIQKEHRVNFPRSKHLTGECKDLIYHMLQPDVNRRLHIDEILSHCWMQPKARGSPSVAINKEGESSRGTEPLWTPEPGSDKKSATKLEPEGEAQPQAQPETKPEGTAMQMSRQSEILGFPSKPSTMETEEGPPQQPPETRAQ

[12] = target: Protein-tyrosine kinase 6 (Homo sapiens) (UniProt Q13882); assay: Residual activity of BRK at 10 uM by microplate scintillation counting
Protein-tyrosine kinase 6 (Homo sapiens), sequence (Q13882 whole entry, looked up): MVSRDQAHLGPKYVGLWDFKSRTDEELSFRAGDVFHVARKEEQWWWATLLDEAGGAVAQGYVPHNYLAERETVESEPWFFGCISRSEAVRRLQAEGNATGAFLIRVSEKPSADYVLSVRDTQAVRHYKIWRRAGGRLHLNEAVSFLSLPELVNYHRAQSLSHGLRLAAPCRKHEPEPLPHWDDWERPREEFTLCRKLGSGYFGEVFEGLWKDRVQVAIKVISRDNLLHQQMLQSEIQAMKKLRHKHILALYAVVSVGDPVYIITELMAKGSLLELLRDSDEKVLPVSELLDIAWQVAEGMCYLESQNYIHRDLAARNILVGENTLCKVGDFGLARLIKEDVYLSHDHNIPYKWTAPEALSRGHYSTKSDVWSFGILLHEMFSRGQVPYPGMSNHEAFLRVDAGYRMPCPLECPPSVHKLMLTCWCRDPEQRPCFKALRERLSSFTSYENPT

[13] = target: CDK6/cyclin D1 (Homo sapiens) (UniProt P24385+Q00534); assay: Residual activity of CDK6/Cyclin D1 at 1 uM by microplate scintillation counting; assay type: protein-complex assay
[14] = target: T2, Myotonin-protein kinase (Homo sapiens) (UniProt Q09013); assay: Residual activity of DMPK at 10 uM by microplate scintillation counting
T2 sequence (whole entry): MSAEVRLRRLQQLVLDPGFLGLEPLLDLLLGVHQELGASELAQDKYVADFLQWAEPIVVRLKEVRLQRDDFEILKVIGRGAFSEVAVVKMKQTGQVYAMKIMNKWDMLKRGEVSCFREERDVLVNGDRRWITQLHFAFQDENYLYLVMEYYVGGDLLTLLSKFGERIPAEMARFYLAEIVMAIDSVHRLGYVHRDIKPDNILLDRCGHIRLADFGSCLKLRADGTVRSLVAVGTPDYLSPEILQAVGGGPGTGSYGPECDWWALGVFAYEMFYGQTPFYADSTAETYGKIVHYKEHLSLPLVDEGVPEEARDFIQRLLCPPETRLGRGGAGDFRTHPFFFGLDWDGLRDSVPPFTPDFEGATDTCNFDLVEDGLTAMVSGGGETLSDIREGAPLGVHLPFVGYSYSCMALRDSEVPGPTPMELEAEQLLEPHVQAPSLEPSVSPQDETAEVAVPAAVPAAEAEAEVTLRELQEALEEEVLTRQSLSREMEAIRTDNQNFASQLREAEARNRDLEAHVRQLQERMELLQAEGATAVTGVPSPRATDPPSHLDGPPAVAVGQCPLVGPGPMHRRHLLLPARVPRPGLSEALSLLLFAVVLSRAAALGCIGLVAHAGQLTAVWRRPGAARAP

[15] = target: T3, Phosphorylase b kinase gamma catalytic chain, liver/testis isoform (Homo sapiens) (UniProt P15735); assay: Residual activity of PHKG2 at 10 uM by microplate scintillation counting
T3 sequence (whole entry): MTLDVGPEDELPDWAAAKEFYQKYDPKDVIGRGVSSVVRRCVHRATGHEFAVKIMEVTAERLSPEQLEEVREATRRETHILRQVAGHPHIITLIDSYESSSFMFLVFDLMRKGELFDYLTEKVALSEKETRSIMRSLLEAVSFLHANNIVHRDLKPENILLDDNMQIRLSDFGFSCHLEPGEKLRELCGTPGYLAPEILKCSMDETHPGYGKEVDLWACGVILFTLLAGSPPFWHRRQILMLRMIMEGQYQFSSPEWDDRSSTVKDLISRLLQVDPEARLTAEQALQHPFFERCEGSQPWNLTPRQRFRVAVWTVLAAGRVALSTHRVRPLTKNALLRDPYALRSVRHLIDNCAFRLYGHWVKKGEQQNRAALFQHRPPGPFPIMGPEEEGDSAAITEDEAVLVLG

Calcium/calmodulin-dependent protein kinase type II subunit beta (Homo sapiens), sequence (Q13554 whole entry): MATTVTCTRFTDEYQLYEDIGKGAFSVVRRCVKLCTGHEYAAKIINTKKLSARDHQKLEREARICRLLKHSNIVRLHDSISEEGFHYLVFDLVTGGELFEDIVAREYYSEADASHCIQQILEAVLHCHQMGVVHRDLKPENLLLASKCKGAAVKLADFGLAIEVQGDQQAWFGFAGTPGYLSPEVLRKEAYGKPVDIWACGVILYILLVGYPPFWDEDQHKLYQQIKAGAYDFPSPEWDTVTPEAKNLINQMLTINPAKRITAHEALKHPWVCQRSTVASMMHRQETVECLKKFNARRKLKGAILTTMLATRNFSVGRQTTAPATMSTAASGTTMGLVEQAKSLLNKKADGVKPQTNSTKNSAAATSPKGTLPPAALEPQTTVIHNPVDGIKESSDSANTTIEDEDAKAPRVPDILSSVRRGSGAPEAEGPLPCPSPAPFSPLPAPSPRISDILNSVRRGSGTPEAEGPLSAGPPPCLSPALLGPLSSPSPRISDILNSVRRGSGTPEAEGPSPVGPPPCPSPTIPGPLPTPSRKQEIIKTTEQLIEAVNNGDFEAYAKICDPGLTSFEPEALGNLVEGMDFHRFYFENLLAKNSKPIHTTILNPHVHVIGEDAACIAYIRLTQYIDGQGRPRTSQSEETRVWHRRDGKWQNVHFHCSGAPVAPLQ

| residual activity [1] | residual activity [2] | residual activity [3] | residual activity [4] | residual activity [5] | residual activity [6] | residual activity [7] | residual activity [8] | residual activity [9] | residual activity [10] | residual activity [11] | residual activity [12] | residual activity [13] | residual activity [14] | residual activity [15] | SMILES |
| --- | --- | --- | --- | --- | --- | --- | --- | --- | --- | --- | --- | --- | --- | --- | --- |
| 70% | 94% | 102% | 87% | 95% | 140% | 116% | 97% | 103% | 87% | 322% | 0% | 104% | 118% | 93% | COc1cc2c(Oc3ccc(-c4nc5ccccc5s4)cc3)ncnc2cc1OCCCN1CCCC1 |
| 103% | 90% | 97% | 94% | 65% | 146% | 130% | 115% | 96% | 120% | 406% | 1% | 109% | 88% | 103% | COc1cc2c(Oc3ccc(-c4nc5ccccc5s4)cc3)ncnc2cc1OCCCN1CCN(C)CC1 |
| 82% | 108% | 108% | 89% | 57% | 151% | 138% | 107% | 97% | 83% | 397% | 0% | 100% | 166% | 88% | COc1cc2c(Oc3ccc(-c4nc5ccccc5s4)cc3F)ncnc2cc1OCCCN1CCN(C)CC1 |
